The term EC50 denotes the concentration needed to bring the measured effect to its halfway point. In general, AUC(0-t) refers to the area under the concentration-time curve up to a stated or last time point. Broadly, the clearance is the volume of plasma or blood freed of the substance per unit of time. A high value points to a high capacity for elimination. What is called half-life is the time in which the quantity being followed falls by half. The term Cmax denotes the maximum level reached in the sampled fluid or tissue. The Tmax is the time from dosing to the highest level. Broadly, the bioavailability is the share of a dose that reaches the circulation, judged against a reference dose that is usually intravenous. Low readings indicate poor availability, high ones good availability.

The source of these data is patent EP4631931A1, “HDAC INHIBITOR AND USE THEREOF” (Wigen Biomedicine Technology (Shanghai) Co., Ltd., priority 2022, dated 2024).

The subject of one data set is Jurkat cell. Briefly: Inhibition of Jurkat cell proliferation (CTG, intracellular ATP). The data set is classed as cell-based. The conditions noted are these: Homo sapiens, 72 h, compared to DMSO group, read-out: Inhibitory activity against Jurkat cell proliferation (IC50). Here is the method: (§1) Jurkat or 293T cells were seeded into a 96-well plate at 3000 cells/well. After overnight adherence culture, the serially diluted compound in DMSO was added. After 72 h, the intracellular ATP level was determined by CTG. The IC50 for the inhibition of cell proliferation by the compounds was calculated compared to the DMSO group. Table 8. Inhibitory activity of compounds of the present disclosure against Jurkat/293T cell proliferation (IC50, µM)

The subject of a further data set is 293T cell. Kind of data set: Inhibition of 293T cell proliferation (CTG, intracellular ATP). The data set is classed as cell-based. The settings on record: Homo sapiens, HEK-293T, 72 h, compared to DMSO group, read-out: Inhibitory activity against 293T cell proliferation (IC50). As to the method: as §1
Another data set relates to HeLa cells. Briefly: Intracellular acetyl lysine / H3K 27 acetyl lysine level by ELISA. The format is cell-based. The settings on record: 24 h of treatment. As to the method: HeLa cells were seeded into a 96-well plate at 20000 cells/well. After overnight adherence culture, the serially diluted compound was added. After 24 h of treatment, intracellular levels of acetyl lysine and H3K 27 acetyl lysine were quantified by ELISA. Table 9. Effect of compound of the present disclosure on levels of acetyl lysine and H3K 27 acetyl lysine
Background: ELISA stands for enzyme-linked immunosorbent assay.

The subject of another data set is OVCAR 3 cells. Kind of data set: NK cell-mediated tumor cell killing (NK92 cells, GFP count). The data set is classed as cell-based. The conditions noted are these: Homo sapiens, 72 h compound, 1-4 h co-culture, compared to DMSO group, read-out: EC50 in promoting the NK92 cell-mediated OVCAR 3 cell death. As to the method:
OVCAR 3 cells […] expressing GFP were seeded into a 96-well plate at 4000 cells/well. After overnight adherence culture, the serially diluted compounds were added, and the plate was incubated for another 72 h. After the two types of cells were mixed and cultured for another 1-4 h, NK92 cells were removed by washing with PBS, and adherent GFP-positive tumor cells were counted. The EC50 of the compounds in promoting the NK92 cell-mediated OVCAR 3 cell death was calculated compared to the DMSO group. Table 11. NK cell-mediated tumor cell killing by compounds of the present disclosure

Data set [1] in a line: Pharmacokinetic experiment in mice. The format is in vivo, CD-1 female mice. The conditions noted are these: female, CD-1, mouse, plasma. As to the method: CD-1 female mice aged 7 to 10 weeks were intravenously administered and orally administered at doses of 1 mg/kg and 10 mg/kg, respectively. The mice were fasted for at least 12 h before the administration and given food 4 h after the administration, and they were given ad libitum access to water during the experiment.
On the day of the experiment, animals in the intravenous group were given the corresponding compound by single injection via the tail vein at an administration volume of 10 mL/kg; and animals in the oral group were given the corresponding compound by single intragastric injection at an administration volume of 10 mL/kg. The animals were weighed before administration, and the administration volume was calculated according to the body weight. The sample collection time points were 0.083 h, 0.167 h, 0.5 h, 1 h, 2 h, 4 h, 8 h, and 24 h. About 200 µL of whole blood was collected through the orbital venous plexus at each time point and used to prepare plasma for concentration determination by high-performance liquid chromatography-tandem mass spectrometry (LC-MS/MS). The plasma concentrations were processed using a non-compartmental model of Winnolin pharmacokinetic software, and the pharmacokinetic parameters were calculated using a linear-log trapezoidal method. Table 13. Results of in vivo pharmacokinetic evaluation of compounds of the present disclosure

Data set [2] concerns Mouse colon cancer MC38 cells. Briefly: In vivo efficacy in MC-38 model. On the set-up: species or system C57BL6N mice. The conditions noted are these: small molecules 15mg/kg PO QD, PD-1 1mg/kg IV QW, BDO 2mg/kg IP QW, 21 days. Here is the method:
(§2) Female C57BL6N mice (aged 6 weeks, 18-22 g) were provided by Vital River Laboratory Animal Technology Co., Ltd. (China) and used one week after quarantine and acclimation. All animals were kept in a room at 23±2 °C with a relative humidity of 50±5%, artificial lighting was provided from 08:00 to 20:00 every day, and the air was exchanged 13-18 times per hour. Mouse colon cancer MC38 cells were cultured conventionally in 1640 medium containing 10% fetal bovine serum in an incubator at 37 °C with 5% CO2. After being subcultured, the cells were collected when they reached the desired amount. The C57BL6N mice were subcutaneously injected with 2 × 10^6 MC38 cells on the right side to form tumors. After the tumors grew to about 100 mm^3, the animals were randomly grouped for administration. Tumor volumes were measured with a caliper on day 3, day 7, day 10, day 14, day 17, and day 21 after the administration. […] The toxicity of the compounds was evaluated according to the body weight and state of the mice.
Table 15. In vivo efficacy of some of the compounds of the present disclosure in MC-38 model

The test system of data set [3] is Mouse colon cancer CT-26 cells. Kind of data set: In vivo efficacy in CT-26 model. On the set-up: species or system BALB/c mice. The conditions noted are these: small molecules 15mg/kg PO QD, PD-1 1mg/kg IV QW, BDO 2mg/kg IP QW, 21 days. Here is the method:
as §2, with “BALB/c” for “C57BL6N”, “CT-26” for “MC38”, “10^5 CT-26” for “10^6 MC38”
Table 16. In vivo efficacy of some of the compounds of the present disclosure in CT-26 model

[4] abbreviates: Injection (1 mg/kg), intravenous.

`[2H]c1cc(NC(=O)c2ccc(CNC(=O)/C=C/c3cccnc3)cc2)c(N)cc1F` [Compound 1, (E)-N-(2-amino-4-fluorophenyl-5-d)-4-((3-(pyridin-3-yl)acrylamido)methyl)benzamide]: the IC50 with Jurkat cell was 860 nM. In the data set with 293T cell, the IC50 was greater than 10000 nM. Also, in the data set with HeLa cells, the “Acetyl lysine Maximum (%)” value turned out to be 430%, the “Acetyl lysine Minimum effective concentration” value came to 16 nM, the “H3K 27 Acetyl lysine Maximum (%)” value is on record as 360% and the “H3K 27 Acetyl lysine Minimum effective concentration” value was 80 nM. For the same compound, the EC50 with OVCAR 3 cells amounted to 43.9 nM. Moreover, in data set [1] (setting [4]), the AUC(0-t) was 401 ng·h/mL, the clearance is 41.5 mL/min/kg and the half-life is 2.41 h. Moreover, in data set [1] (Injection (1 mg/kg), intravenous, read-out: Vdss), the Vd amounted to 2.19 L/kg. In addition, in data set [1] (Oral administration (10 mg/kg)), the AUC(0-t) is 1890 ng·h/mL, the Cmax is 3450 ng/mL, the time to peak (Tmax) worked out at 4.8 min and the bioavailability was found to be 45.3%. Further, in data set [1] (Oral administration (10 mg/kg)), the half-life was 2.76 h. Further, the “Change in body weight” value in data set [2] is “+17.6%”. Besides, in data set [2] (6 mice per group), the “TGI(%)” value is on record as 35.7%. Also, the “Change in body weight” value in data set [3] is given as “+17.6%”. Besides, the “TGI(%)” value in data set [3] (6 mice per group) stood at 35.7%.
